Legend:
[1] = system: rabbit esophageal epithelium; experiment: Ussing chamber method for assessing esophageal epithelial protection against acid injury (60 mM HCl, pH 1.6, decline in electrical resistance R); format: cell-based; conditions: for protective activity, Resistance Index (RI)=[(Ragent/Rcontrol)-1], RI >0.2 considered significant: 2, 4 and/or 8 mM for 15 min, 30 min and/or >30 min before 60 mM HCl pH 1.6 for 1 hour, N=1 tissue/dose, FIG. 9; for protection against acid injury after brief luminal exposure: 1 min exposure to 4 mM agent, multiple washouts over 4 hours, FIG. 5; for lowest protective dose: pH 1.6, 1 hour; for protective effect, single exposure: single 1 min exposure
Description: Previously, a test system was developed in the Ussing chamber to identify and characterize agents with cytoprotective effects against acid injury to the tissue. Briefly, the esophageal epithelium is mounted in the Ussing chamber so that acid (or acid-pepsin) could be added to the luminal bath while monitoring changes in electrical resistance (R). The changes in R are an effective means to identify damage by acid or acid-pepsin since damage is heralded by an increase in paracellular permeability and this reflected by a decline in R. In effect, the ability of an agent or compound to prevent the acid-induced decline in R without altering luminal pH (which excludes protection being mediated by acid buffering or neutralization) is evidence for a cytoprotective effect, i.e. protection directly exerted by the agent or compound on the epithelium. Further, we previously established that the ability of an agent or compound to prevent the acid-induced decline in R in this Ussing chamber model of acid injury was an accurate predictor, and therefore surrogate marker, of its ability to protect rabbit esophageal epithelium against acid injury in vivo (U.S. Pat. Nos. 5,374,537 and 5,189,056).
(§1) New Zealand white rabbits weighing between 8-9 lbs are sacrificed by administering an intravenous overdose of phenobarbital (60 mg/mL). The esophagus is excised, opened, and pinned mucosal surface down in a paraffin tray containing ice-Cold oxygenated normal Ringer's solution. The submucosa is grasped with hemostats, lifted up, and dissected free of the underlying mucosa with a scalpel. This process yields a sheet of tissue consisting of stratified squamous epithelium and a small amount of underlying connective tissue. From this tissue, four sections are cut and mounted as flat sheets between Lucite half-Chambers with an aperture of 1.13 cm^2 for measurements of potential difference (PD), short circuit current (Isc) and, from these values, calculation of transmucosal electrical resistance (R). Tissues are bathed with normal Ringer solution composed of the following (in mmol/L): Na 140; Cl 119.8; K 5.2; HCO3 25; Ca 1.2; Mg 1.2; HPO4 2.4; H2PO4 0.4; and 268 mOsm/kg water, with pH 7.5 when gassed with 95% O2/5% CO2 at 37° C. Mucosal and serosal solutions are connected to calomel and Ag—AgCl electrodes with Ringer's-agar bridges for measurements of PD and automatic short-Circuiting of the tissue with a voltage clamp (World Precision Instruments Inc., Sarasota, Fla.). Tissues are monitored continuously in the open-circuit state except for 5-10 second periods when the Isc is read. Electrical resistance (R) was calculated using Ohm's Law from the open-circuit PD and Isc.
To test the protective effect of an agent against acid injury to esophageal epithelium, 45 minutes after mounting (equilibration period), tissues paired by R had for one of the pair varying amounts of an agent added to the luminal bath while the other part of the pair received vehicle (normal Ringer solution) as control. After varying periods of exposure to the agent, 60 mM HCl was added to the luminal (mucosal) solution to reduce pH to 1.6; the pH was monitored and maintained throughout the 1 hr of exposure for all tissues to ensure uniform risk of injury. This negated any protective effect as being due to buffering by the agent. In some experiments the power of the protective effect of an agent was determined after varying periods of luminal exposure by washout prior to acid exposure, i.e. replacement of the luminal bath containing agent with normal Ringer Solution that contained only vehicle. R was then monitored before and during acidification with 60 mM HCl and the results for agent and controls presented as percent decline in R from pre-acidification values. […]

[2] = system: rabbit esophageal epithelium; experiment: In vivo delivery of agent in drinking water, then Ussing chamber acid injury test (60 mM HCl, pH 1.6); conditions: for protective effect after in vivo delivery in drinking water: rabbit, acid on day 5
Experimental: as §1
(§2) New Zealand white rabbits weighing between 8-9 lbs were given 25 ml of water containing test agent or water alone (control) to drink once each morning on 4 consecutive days. Following consumption of the 25 ml of water, the rabbits had their normal water source restored and they ate and drank normally for the remainder of each day. Twenty-four hours after the last dose, the rabbits were sacrificed by administering an intravenous overdose of phenobarbital (60 mg/mL). The esophagus was excised and processed as above to test its ability to resist acid injury upon exposure to 60 mM HCl , pH 1.6, for 1 hr. Three sections of rabbit esophageal epithelium that had been exposed to test agent and three sections exposed to water alone (control) were mounted, equilibrated and then simultaneously exposed to acid on the same day without the operator being aware of which were treated and which were control sections of epithelium. Initial R values in all experiments were similar preacidification. […] Significance was taken as a difference in values of p<0.05.

[3] = system: rabbit esophageal epithelium; experiment: In vivo delivery of agent in drinking water, then Ussing chamber acid-pepsin injury test (60 mM HCl, pH 1.6, 1 mg/ml pepsin); conditions: FIG. 12
Experimental: as §2
FIG. 12 is a graph showing the protective effect against an acid-pepsin mixture after in vivo delivery of CDDD-1193 in drinking water. A rabbit spontaneously drank 25 ml of water containing 0.6 mg (40 μM) or 0.06 mg (4 μM) CDDD-1193 once-a-day for 4 consecutive days or water alone. On day 5, the rabbits were sacrificed and three sections of esophageal epithelium mounted in Ussing chambers from each rabbit. After equilibration in Ringer solution, all tissues were acidified by luminal addition of 60 mM HCl , pH 1.6, containing 1 mg/ml pepsin, for 1 hour. Electrical resistance, R, was monitored and plotted as percent initial R (%) at the end of 1 hour of acid-pepsin exposure. […] N=3 tissues; * p<0.05 compared to controls.

[4] = then 60 mM HCl pH 1.6 for 1 hour
[5] = agent in luminal bath 30 min before and continuously during 60 mM HCl, R as % of initial R, FIG. 1, 2

O=S(=O)([O-])OCC(Oc1ccccc1)c1ccccc1.[Na+] (centres unmarked) [CDDD-1185, 2-Phenoxy-2-phenylethanesulfate, sodium salt]
protective activity, Resistance Index (RI)=[(Ragent/Rcontrol)-1], RI >0.2 considered significant [1]: may have significant protective activity

O=S(=O)(O)OC[C@@H](OS(=O)(=O)O)[C@@H](Oc1ccccc1)c1ccccc1.[Na].[Na] [CDDD-1187, (2R, 3S)-3-Phenoxy-3-phenylpropane-1,2-disulfate, disodium salt]
protective activity, Resistance Index (RI)=[(Ragent/Rcontrol)-1], RI >0.2 considered significant [1]: may have significant protective activity

O=S(=O)([O-])OCC(Oc1ccc(Cl)cc1S(=O)(=O)[O-])c1ccccc1.[Na+].[Na+] (centres unmarked) [CDDD-1188, 2-(4-Chloro-2-sulfophenoxy)-2-phenylethanesulfate, disodium salt]
protective activity, Resistance Index (RI)=[(Ragent/Rcontrol)-1], RI >0.2 considered significant [1]: may have significant protective activity

O=S(=O)(O)OCC(OS(=O)(=O)O)C(Oc1ccccc1)c1ccc(N=C=S)cc1 [CDDD-1192, Disodium (2S, 3R)-3-(4-isothiocyanatophenyl)-3-phenoxypropane-1,2-disulfate]
protection against acid injury after brief luminal exposure [1, 4]: retain significant protection | lowest protective dose ([1]; agent in luminal bath 30 min before and during 60 mM HCl, FIG. 3): 0.004 mM

O=S(=O)(O)OC[C@H](OS(=O)(=O)O)[C@H](Oc1ccc(N=C=S)cc1)c1ccc(N=C=S)cc1.[Na].[Na] [CDDD-1193, Disodium (2S, 3R)-3-(4-isothiocyanophenoxy)-3-(4-isothiocyanatophenyl)propane-1,2-disulfate]
protective effect, repeated exposures ([1]; 400 nM, 1 min every 5 min times ten exposures, then 60 mM HCl pH 1.6 for 1 hour, FIG. 7): protective | protective effect, single exposure ([1]; 400 nM, then 60 mM HCl pH 1.6 for 1 hour, FIG. 7): little protection | protective effect, repeated exposures ([1]; 1 μM, 1 min every 5 min times 5 or ten exposures, then 60 mM HCl pH 1.6 for 1 hour, FIG. 8): cumulative with repeated exposures | protective effect, single exposure ([1]; 1 μM, then 60 mM HCl pH 1.6 for 1 hour, FIG. 8): modestly protective | protection against acid injury after brief luminal exposure [1, 4]: retain significant protection | protective effect after brief luminal exposure ([1]; 1 min exposure to 4 mM, multiple washouts over 8 hours, then 60 mM HCl pH 1.6 for 1 hour, FIG. 6): substantial | persistence of protective effect ([1]; 1 min exposure to 4 mM, repeated washes before 60 mM HCl pH 1.6, FIG. 6): 8 h | lowest protective dose ([1]; agent in luminal bath 30 min before and during 60 mM HCl, FIG. 4): 4e-05 mM | protective effect after in vivo delivery in drinking water ([2]; 4 μM (0.06 mg in 25 ml water) once-a-day for 4 days, FIG. 10B): significantly protective | duration of protective effects after the last dose ([2]; 4 μM in drinking water once-a-day for 4 days, FIG. 10B): at least 24 hrs | protective effect after in vivo delivery in drinking water ([2]; 40 μM (0.6 mg in 25 ml water) once-a-day for 4 days, FIG. 10A): significantly protective | duration of protective effects after the last dose ([2]; 40 μM in drinking water once-a-day for 4 days, FIG. 10A): at least 24 hrs | protective effect against acid-pepsin after in vivo delivery in drinking water ([3]; 4 μM (0.06 mg in 25 ml water) once-a-day for 4 days): significantly protective | protective effect against acid-pepsin after in vivo delivery in drinking water ([3]; 40 μM (0.6 mg in 25 ml water) once-a-day for 4 days): significantly protective | duration of protective effect against acid-pepsin after the last dose ([3]; 40 μM and 4 μM in drinking water once-a-day for 4 days): at least 24 hours

CC(=O)Nc1ccc(C=Cc2ccc(N=C=S)cc2S(=O)(=O)O)c(S(=O)(=O)O)c1 [SITS, 4-acetamido-4′-isothiocyanatostilbene-2-2′-disulfonic acid, reference compound]
protection against acid injury after brief luminal exposure [1, 4]: retain significant protection | lowest protective dose [1, 5]: 0.1 mM | protective effect after in vivo delivery in drinking water ([2]; 4 mM (50 mg in 25 ml water) once-a-day for 4 days, FIG. 11): significantly protective | duration of protective effects after the last dose ([2]; 4 mM in drinking water once-a-day for 4 days, FIG. 11): at least 24 hrs

O=S(=O)(O)OC[C@H]1O[C@@](COS(=O)(=O)O)(O[C@H]2O[C@H](COS(=O)(=O)O)[C@@H](OS(=O)(=O)O)[C@H](OS(=O)(=O)O)[C@H]2OS(=O)(=O)O)[C@@H](OS(=O)(=O)O)[C@@H]1OS(=O)(=O)O [SOS, sucrose octasulfate, reference compound]
protection against acid injury after brief luminal exposure [1, 4]: retain significant protection | lowest protective dose [1, 5]: 1 mM
